Reference: patent US20210260033A1, “COMBINED THERAPY WITH ICOS BINDING PROTEINS AND […] INHIBITORS” (GLAXOSMITHKLINE INTELLECTUAL PROPERTY DEVELOPMENT LIMITED, priority 2018, published 2021)
Where two headings read alike, the source gives them in different places.

How the values were obtained:
AML cell lines [1] = assay: Methylscan proteomic evaluation of arginine methylation; format: cell-based; conditions: AML cell lines treated with the tool compound vs DMSO
Description: FIG. 3: Methylscan evaluation of cell lines treated with Compound D. Percent of proteins with methylation changes (independent of directionality of change) are categorized by functional group as indicated.
To identify putative PRMT1 substrates, a proteomic approach (Methylscan, Cell Signaling Technology) was utilized to identify proteins with changes in arginine methylation states in response to a tool PRMT1 inhibitor, Compound D. Protein fragments from Compound D- and DSMO-treated cell extracts were immunoprecipitated using methyl arginine specific antibodies (ADMA, MMA, SDMA), and peptides were identified by mass spectrometry.

[2] = dog, at 21-day MTD […] mg/kg
kidney cancer cell lines = assay: 6-day growth-death assay (Cell Titer Glo); format: cell-based, human; conditions: renal cell carcinoma lines tested
Method: (§4) The growth of all cell lines was evaluated over time across a wide range of seeding densities to identify conditions that permitted proliferation throughout the entire 6-day assay. Cells were plated at the optimal seeding density and after overnight incubation, a 20-point 2-fold titration of compound was added and plates were incubated for 6 days. A replicate plate of cells was harvested at the time of compound addition to quantify the starting number of cells (T0). Values obtained after the 6 day treatment were expressed as a function of the T0 value and plotted against compound concentration. The T0 value was normalized to 100% and represents the number of cells at the time of compound addition. The data were fit with a 4 parameter equation to generate a concentration response curve and the growth IC50 (gIC50) was determined. The gIC50 is the midpoint of the ‘growth window’, the difference between the number of cells at the time of compound addition (T0) and the number of cells after 6 days (DMSO control). The growth-death assay can be used to quantify the net population change, clearly defining cell death (cytotoxicity) as fewer cells compared to the number at the time of compound addition (T0).

Toledo DLBCL cells = assay: western analysis of arginine methylation, timecourse; format: cell-based, human; conditions: 0.4 uM
Method: (B) Representative western blots of arginine methylation marks. Regions quantified are denoted by black bars on the right of the gel.
As predicted, ADMA methylation decreased while MMA increased upon compound exposure (FIG. 12). […] Given the detection of numerous substrates with varying kinetics, and variability of ADMA levels among DMSO-treated samples, both the full lane and a prominent 45 kDa band were characterized to assess ADMA. Increases in MMA were apparent by 24 hours and near maximal by 48 hours while decreases in the 45 kDa ADMA band required 72-96 hours to achieve maximal effect. Increases in SDMA were apparent after 48 hours of compound exposure and continued to increase through 120 hours, consistent with the potential switch from conversion of MMA to ADMA by Type I PRMTs to SDMA by Type II PRMTs (FIG. 12).

OCI-Ly1 = system: OCI-Ly1
Method: (§1) FIG. 18: Propidium iodide FACS analysis of cell cycle in human lymphoma cell lines. […] Data represents the average±SEM of biological replicates, n=2.
(§2) By day 7, an increase in the sub-G1 population was apparent at concentrations ≥100 nM.

U2932 = system: U2932
Method: as §1, §2

AML cell lines [3] = assay: 6 and 10 day proliferation assays; format: cell-based, human; conditions: day 10 vs day 6
Description: (§3) (B) Ymin-T0 at 6 day (light blue) and 10 day (dark blue) with corresponding gIC100 (red points).

lymphoma cell lines [4] = assay: 6 and 10 day proliferation assays; format: cell-based, human; conditions: day 10 vs day 6
Description: as §3

[5] = system: panel of lymphoma cell lines; assay: western dose response of arginine methylation; format: cell-based, human; conditions: all lymphoma cell lines evaluated; 72 hours
Description: Regions quantified for (B) are denoted by black bars to the left of gels. […] Corresponding gIC50 values in 6-day growth death assay are as indicated in red.

lymphoma cell lines [6] = assay: 6-day growth-death assay (Cell Titer Glo); format: cell-based, human; conditions: Hodgkin's and non-Hodgkin's subtypes
Method: as §4

[7] = rat, at 14-day MTD […] mg/kg
AML cell lines [8] = assay: 6-day growth-death assay (Cell Titer Glo); format: cell-based, human; conditions: 10 cell lines
Method: as §4

| SMILES | proteins with changes in arginine methylation states (ADMA, MMA, SDMA) (AML cell lines [1]) | Cave (total AUC or exposure) [2] | cytotoxic response (kidney cancer cell lines) | time to maximal decrease of the 45 kDa ADMA band (Toledo DLBCL cells) | change of ADMA methylation (Toledo DLBCL cells; up to 120 hours) | change of MMA (Toledo DLBCL cells; up to 120 hours) | change of SDMA (Toledo DLBCL cells; up to 120 hours) | concentration at which sub-G1 effect was evident (OCI-Ly1) | concentration at which sub-G1 effect was evident (U2932) | effect of extended exposure on potency (gIC50) or cytotoxicity (Ymin-T0) (AML cell lines [3]) | effect of extended exposure on potency (gIC50) or cytotoxicity (Ymin-T0) (lymphoma cell lines [4]) | 45 kDa ADMA band [5] | sensitivity by lymphoma subtype (lymphoma cell lines [6]) | Cave (total AUC or exposure) [7] | number of cell lines in which cytotoxicity was induced (AML cell lines [8]) |
| --- | --- | --- | --- | --- | --- | --- | --- | --- | --- | --- | --- | --- | --- | --- | --- |
| CNCCN(C)Cc1c[nH]nc1[C@H]1CC[C@@]2(CC1)CC(C)(C)CO2 [Compound D] | the majority of substrates identified were transcriptional regulators and RNA processing proteins | – | – | – | – | – | – | – | – | – | – | – | – | – | – |
| CCOCC1(COCC)CCC(c2n[nH]cc2CN(C)CCNC)CC1 [Compound A] | – | 3200 nM | none of the lines tested showed a cytotoxic response | 72 to 96 h | decreased | increased | increase | 10 µM | 10 µM | minimal effects | minimal effects | decreased to undetectable levels | equally sensitive | 2100 nM | 5 cell lines |
